Laboratory results taken from patent US12054765B2, “Phytopathogenic fungus detecting apparatus, and detecting method and method for selecting concentration of agricultural chemical using same” (Panasonic Intellectual Property Management Co., Ltd., priority 2018, dated 2024).

System: Botrytis cinerea
Test: Hyphal growth of Botrytis cinerea in agricultural-chemical three-concentration-level layers-stacked culture media
Assay type: cell-based
Conditions: 25 degrees Celsius, seven days; for hyphae of Botrytis cinerea in the culture medium layer (microscope observation from side surface): potato dextrose agar
From the text: Botrytis cinerea that is one type of phytopathogenic fungus and a pathogenic fungus of tomato gray mold disease was inoculated into a potato dextrose agar culture medium (Difco (registered trademark) Potato Dextrose Agar). Next, the culture medium was left to stand still at a temperature of 25 degrees Celsius for one week. […] Next, the Botrytis cinerea-cultured potato dextrose agar culture medium in which hyphae sufficiently grew was left under irradiation with black light for not less than four days and left in a room-temperature environment for not less than two weeks to promote spore formation. […] Hereinafter, this aqueous solution is referred to as an “aqueous phytopathogenic fungus solution”.
Agricultural-chemical main-ingredient reagent Captan (manufactured by Tokyo Chemical Industry Co., Ltd. (TCI)) was added to potato dextrose agar culture media, with a charging amount (concentration) changed, to produce three layers of original culture media. Captan was prepared into a dimethyl sulfoxide (DMSO) (manufactured by SIGMA-ALDRICH) solution of Captan at a concentration 100 times a standard use concentration. The solution was charged into and mixed with the potato dextrose agar culture media respectively in amounts of 0 ml, 2 ml, and 10 ml per 1 L of the potato dextrose agar culture media to make three-concentration-level culture media respectively at a Captan concentration of 0 (no blending) and in an amount ⅕ a standard use amount of Captan and the standard use amount. In the present example, the potato dextrose agar culture media containing Captan at three concentration levels were stacked from bottom in an order of the Captan standard amount culture medium, the culture medium in an amount ⅕ the Captan standard amount, and the medium with no Captan blended, and the stacked body was cut out with a glass cylindrical, square, or rectangular shape forming member into a device of the example. […]

## O=C1C2CC=CCC2C(=O)N1SC(Cl)(Cl)Cl (stereo not drawn) [Captan]
Layer where hyphal growth stopped
  amount at which an effect against Botrytis cinerea was exerted (effective concentration): ⅕
Lower layer 64, Captan blended in the standard amount
  hyphae of Botrytis cinerea in the culture medium layer (microscope observation from side surface): No hypha was confirmed
Second layer 63, Captan blended in the amount ⅕ the standard use amount
  hyphae of Botrytis cinerea in the culture medium layer (microscope observation from side surface): no hypha of Botrytis cinerea was confirmed
